Data on two molecules can be found in ChEMBL document CHEMBL1201862, “PubChem BioAssay data set” (2004).

Calls of active or inactive are those of the source.

Holding throughout (assay type): functional
The target of assay [1] is Serine/threonine-protein kinase PLK4 (Homo sapiens, UniProt O00444).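 Further: PLK4 measured as one member of a kinome-wide kinase profiling panel.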
Assay [2] has as its target Cyclin-dependent kinase 5 (Homo sapiens, UniProt Q00535).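 Further: CDK5 measured as one member of a kinase profiling panel.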
Assay [3] addresses Dual specificity tyrosine-phosphorylation-regulated kinase 4 (Homo sapiens, UniProt Q9NR20).
Assay [4] concerns the target MAP kinase-activated protein kinase 5 (Homo sapiens, UniProt Q8IW41).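 Further: measured as one member of a kinome panel.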
The target in assay [5] is Protein kinase C delta type (Homo sapiens, UniProt Q05655).
The target of assay [6] is Cyclin-dependent kinase 1 (Homo sapiens, UniProt P06493).
For assay [7], the target named is Serine/threonine-protein kinase DCLK1 (Homo sapiens, UniProt O15075).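 Further: affinity for DCLK1 (listed as DCAMKL1) measured as one member of a kinome-wide kinase profiling panel.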
The target of assay [8] is Serine/threonine-protein kinase Chk2 (Homo sapiens, UniProt O96017).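 Further: CHEK2 entry within a kinome-wide screening panel.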
Assay [9] deals with Serine/threonine-protein kinase PLK1 (Homo sapiens, UniProt P53350).
Assay [10] has as its target Calcium/calmodulin-dependent protein kinase type II subunit gamma (Homo sapiens, UniProt Q13555).
In assay [11] the target is Protein kinase C zeta type (Homo sapiens, UniProt Q05513).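 Further: measured as one member of a broad kinase profiling panel.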
For assay [12], the target named is Megakaryocyte-associated tyrosine-protein kinase (Homo sapiens, UniProt P42679).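 Further: affinity measured as one member of a kinase panel (Navigating the Kinome) against MATK.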
Assay [13] has as its target Ribosomal protein S6 kinase alpha-3 (Homo sapiens, UniProt P51812).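 Further: measured within a kinome-wide profiling panel.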
Assay [14] deals with Cyclin-dependent kinase 19 (Homo sapiens, UniProt Q9BWU1). The experiment in a line: Navigating the Kinome. Panel member name: CDC2L6.
Assay [15] addresses Protein kinase C iota type (Homo sapiens, UniProt P41743).
The target of assay [16] is Tyrosine-protein kinase Srms (Homo sapiens, UniProt Q9H3Y6).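 Further: SRMS measured as one member of a kinome-wide kinase profiling panel.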
Assay [17] has as its target Mitogen-activated protein kinase 13 (Homo sapiens, UniProt O15264).
For assay [18], the target named is T1, Replicative DNA helicase DnaB (Mycobacterium tuberculosis, UniProt P9WMR3).
T1 sequence (P9WMR3 whole entry): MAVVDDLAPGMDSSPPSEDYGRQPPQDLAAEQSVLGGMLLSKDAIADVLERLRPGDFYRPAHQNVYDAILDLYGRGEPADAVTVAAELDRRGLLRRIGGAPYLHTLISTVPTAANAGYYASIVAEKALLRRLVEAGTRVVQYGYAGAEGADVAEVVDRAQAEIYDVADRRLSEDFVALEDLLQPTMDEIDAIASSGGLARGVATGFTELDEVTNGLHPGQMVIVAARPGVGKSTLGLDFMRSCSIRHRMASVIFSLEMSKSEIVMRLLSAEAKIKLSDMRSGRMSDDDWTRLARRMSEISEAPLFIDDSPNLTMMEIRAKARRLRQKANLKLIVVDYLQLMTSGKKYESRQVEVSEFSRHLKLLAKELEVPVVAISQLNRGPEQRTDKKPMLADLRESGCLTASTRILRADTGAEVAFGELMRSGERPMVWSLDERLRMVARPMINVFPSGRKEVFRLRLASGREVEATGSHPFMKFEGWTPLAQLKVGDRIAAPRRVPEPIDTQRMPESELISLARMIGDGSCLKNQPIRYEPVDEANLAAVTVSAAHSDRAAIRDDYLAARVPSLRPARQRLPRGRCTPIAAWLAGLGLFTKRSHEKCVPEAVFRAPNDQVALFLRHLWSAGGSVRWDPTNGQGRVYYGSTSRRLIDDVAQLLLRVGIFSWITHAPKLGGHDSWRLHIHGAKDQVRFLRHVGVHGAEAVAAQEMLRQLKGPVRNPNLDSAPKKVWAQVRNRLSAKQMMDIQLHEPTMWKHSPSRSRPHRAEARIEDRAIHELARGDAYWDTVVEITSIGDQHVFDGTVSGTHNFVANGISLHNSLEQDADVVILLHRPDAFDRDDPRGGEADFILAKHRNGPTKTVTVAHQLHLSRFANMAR
The experiment in a line: DnaB intein splicing inhibitors, dose response, biochemical, cell-free fluorescence (AID 449749).

Assay [19] has as its target T2, Sentrin-specific protease 7 (Homo sapiens, UniProt Q9BQF6).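 Further: Luminescence-based dose-response confirmation of ultra-high-throughput screening hits, measuring inhibition of SENP7.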
T2 sequence (Q9BQF6 whole entry): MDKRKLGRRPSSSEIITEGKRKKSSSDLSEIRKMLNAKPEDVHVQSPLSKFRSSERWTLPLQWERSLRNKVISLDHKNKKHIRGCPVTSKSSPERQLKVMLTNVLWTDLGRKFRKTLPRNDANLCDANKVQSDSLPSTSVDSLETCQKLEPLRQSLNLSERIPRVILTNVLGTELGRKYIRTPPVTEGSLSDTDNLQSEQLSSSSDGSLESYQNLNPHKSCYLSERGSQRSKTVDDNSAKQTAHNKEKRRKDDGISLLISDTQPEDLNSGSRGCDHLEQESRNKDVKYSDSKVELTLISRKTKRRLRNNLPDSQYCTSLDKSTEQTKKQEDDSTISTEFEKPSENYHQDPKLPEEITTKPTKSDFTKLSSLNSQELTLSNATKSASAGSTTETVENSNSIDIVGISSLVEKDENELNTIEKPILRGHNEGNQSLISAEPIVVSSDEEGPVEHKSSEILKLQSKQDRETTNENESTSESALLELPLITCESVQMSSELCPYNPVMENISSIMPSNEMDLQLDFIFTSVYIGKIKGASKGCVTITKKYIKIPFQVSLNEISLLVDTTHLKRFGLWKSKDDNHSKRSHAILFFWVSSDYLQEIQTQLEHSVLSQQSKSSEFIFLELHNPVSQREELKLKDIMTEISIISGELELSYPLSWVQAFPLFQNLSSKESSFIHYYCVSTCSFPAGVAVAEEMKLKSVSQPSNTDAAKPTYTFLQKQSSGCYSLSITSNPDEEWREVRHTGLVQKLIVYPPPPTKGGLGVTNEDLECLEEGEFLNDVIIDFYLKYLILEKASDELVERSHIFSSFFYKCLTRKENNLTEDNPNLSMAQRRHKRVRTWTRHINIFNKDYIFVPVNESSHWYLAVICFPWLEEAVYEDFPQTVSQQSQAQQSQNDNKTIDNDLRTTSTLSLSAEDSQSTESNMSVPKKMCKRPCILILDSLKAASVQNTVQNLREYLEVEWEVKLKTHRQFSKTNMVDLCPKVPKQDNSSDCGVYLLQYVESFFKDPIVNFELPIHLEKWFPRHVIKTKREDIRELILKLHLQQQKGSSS

A word on the Ki: it is the dissociation constant of the complex between target and ligand, obtained from inhibition or displacement. By AC50 is commonly meant the concentration at which the activity in the assay is half-maximal. In general, IC50 refers to the point on the concentration scale where inhibition reaches its midpoint.

Chain of Mitogen-activated protein kinase 13 (O15264 whole entry): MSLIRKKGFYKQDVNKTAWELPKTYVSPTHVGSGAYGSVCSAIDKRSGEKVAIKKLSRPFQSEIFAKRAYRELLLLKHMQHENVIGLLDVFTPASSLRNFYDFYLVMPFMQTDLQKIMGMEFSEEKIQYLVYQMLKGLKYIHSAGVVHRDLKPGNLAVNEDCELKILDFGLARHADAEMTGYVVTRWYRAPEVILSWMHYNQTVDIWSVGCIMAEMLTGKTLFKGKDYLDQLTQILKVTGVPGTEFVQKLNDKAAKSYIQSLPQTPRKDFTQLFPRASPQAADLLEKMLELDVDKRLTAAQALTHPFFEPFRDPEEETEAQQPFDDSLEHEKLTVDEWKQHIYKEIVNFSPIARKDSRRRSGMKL
Chain of Ribosomal protein S6 kinase alpha-3 (P51812 whole entry): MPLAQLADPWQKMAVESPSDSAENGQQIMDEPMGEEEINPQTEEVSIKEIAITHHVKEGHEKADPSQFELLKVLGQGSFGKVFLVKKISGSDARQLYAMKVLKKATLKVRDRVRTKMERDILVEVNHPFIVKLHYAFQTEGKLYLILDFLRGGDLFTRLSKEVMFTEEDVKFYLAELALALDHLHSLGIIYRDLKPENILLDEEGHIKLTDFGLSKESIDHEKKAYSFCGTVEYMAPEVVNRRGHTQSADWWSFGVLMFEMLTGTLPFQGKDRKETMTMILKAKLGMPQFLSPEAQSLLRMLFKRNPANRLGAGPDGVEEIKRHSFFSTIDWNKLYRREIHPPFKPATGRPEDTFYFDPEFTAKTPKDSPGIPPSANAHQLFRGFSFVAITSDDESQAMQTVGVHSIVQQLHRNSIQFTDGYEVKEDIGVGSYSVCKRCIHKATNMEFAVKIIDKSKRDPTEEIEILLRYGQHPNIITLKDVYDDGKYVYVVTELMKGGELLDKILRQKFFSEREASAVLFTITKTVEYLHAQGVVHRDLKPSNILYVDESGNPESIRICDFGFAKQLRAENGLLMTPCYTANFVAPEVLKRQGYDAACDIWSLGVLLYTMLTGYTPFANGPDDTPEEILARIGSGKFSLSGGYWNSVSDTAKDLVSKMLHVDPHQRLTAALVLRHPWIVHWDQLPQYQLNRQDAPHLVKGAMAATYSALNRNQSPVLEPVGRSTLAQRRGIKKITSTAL
Chain of MAP kinase-activated protein kinase 5 (Q8IW41 whole entry): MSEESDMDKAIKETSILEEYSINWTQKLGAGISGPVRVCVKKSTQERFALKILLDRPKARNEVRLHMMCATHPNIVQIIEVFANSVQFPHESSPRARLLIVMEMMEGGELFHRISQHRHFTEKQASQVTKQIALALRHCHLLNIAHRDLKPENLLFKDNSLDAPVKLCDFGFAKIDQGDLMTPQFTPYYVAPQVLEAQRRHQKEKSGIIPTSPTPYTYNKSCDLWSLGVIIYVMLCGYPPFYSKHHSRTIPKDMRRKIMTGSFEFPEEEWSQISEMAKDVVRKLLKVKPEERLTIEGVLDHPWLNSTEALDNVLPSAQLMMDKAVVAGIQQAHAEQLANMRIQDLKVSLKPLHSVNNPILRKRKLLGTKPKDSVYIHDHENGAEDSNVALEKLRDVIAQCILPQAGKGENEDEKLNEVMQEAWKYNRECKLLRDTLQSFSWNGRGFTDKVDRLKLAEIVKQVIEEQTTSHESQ
Chain of Serine/threonine-protein kinase PLK1 (P53350 whole entry): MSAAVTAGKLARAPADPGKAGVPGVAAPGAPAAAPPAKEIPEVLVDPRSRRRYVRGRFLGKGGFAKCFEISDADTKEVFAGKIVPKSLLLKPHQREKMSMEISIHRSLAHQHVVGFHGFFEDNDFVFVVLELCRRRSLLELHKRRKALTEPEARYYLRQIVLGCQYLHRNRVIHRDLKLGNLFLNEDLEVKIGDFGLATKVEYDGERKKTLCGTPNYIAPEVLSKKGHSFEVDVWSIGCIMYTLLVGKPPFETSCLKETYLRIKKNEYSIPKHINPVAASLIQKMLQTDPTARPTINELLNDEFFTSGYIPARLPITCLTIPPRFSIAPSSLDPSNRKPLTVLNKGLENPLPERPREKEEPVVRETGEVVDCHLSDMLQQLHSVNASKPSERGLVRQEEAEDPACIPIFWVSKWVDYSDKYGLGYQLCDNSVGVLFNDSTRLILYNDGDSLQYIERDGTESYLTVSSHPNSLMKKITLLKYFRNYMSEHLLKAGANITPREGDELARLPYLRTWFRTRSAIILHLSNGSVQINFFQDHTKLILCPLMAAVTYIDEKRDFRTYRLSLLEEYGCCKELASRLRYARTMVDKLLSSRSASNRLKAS
Chain of Cyclin-dependent kinase 1 (P06493 whole entry): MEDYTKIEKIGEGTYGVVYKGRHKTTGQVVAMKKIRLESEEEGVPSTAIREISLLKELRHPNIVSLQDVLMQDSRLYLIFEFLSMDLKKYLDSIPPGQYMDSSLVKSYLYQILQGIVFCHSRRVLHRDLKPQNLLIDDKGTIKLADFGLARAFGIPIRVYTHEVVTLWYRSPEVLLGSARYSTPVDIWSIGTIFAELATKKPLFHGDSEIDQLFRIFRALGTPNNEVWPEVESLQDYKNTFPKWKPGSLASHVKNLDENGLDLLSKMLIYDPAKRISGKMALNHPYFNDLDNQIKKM
Chain of Serine/threonine-protein kinase PLK4 (O00444 whole entry): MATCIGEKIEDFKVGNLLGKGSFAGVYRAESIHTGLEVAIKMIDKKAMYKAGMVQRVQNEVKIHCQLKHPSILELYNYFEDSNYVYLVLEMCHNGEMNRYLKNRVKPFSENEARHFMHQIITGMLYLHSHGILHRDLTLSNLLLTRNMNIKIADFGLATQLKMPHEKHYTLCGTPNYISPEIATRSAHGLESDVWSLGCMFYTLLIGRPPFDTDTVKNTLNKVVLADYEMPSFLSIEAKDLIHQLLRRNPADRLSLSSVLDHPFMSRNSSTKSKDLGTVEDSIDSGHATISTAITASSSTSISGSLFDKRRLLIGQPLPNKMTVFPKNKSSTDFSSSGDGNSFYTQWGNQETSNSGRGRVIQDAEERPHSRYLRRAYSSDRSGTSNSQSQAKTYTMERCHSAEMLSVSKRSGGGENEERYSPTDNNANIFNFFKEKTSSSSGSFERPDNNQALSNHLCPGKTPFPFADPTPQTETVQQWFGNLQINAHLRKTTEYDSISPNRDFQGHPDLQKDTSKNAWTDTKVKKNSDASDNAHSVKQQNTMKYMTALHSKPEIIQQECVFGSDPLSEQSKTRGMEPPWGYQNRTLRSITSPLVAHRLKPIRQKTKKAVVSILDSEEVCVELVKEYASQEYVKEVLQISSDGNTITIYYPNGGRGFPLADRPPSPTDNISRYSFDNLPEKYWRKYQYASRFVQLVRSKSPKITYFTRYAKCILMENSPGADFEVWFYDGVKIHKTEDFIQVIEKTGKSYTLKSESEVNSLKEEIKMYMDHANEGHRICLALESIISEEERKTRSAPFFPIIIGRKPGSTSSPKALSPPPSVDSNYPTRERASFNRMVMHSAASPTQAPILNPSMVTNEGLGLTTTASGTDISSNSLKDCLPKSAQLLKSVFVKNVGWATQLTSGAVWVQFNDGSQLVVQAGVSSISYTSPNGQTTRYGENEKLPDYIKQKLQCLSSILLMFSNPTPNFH
Chain of Protein kinase C iota type (P41743 whole entry): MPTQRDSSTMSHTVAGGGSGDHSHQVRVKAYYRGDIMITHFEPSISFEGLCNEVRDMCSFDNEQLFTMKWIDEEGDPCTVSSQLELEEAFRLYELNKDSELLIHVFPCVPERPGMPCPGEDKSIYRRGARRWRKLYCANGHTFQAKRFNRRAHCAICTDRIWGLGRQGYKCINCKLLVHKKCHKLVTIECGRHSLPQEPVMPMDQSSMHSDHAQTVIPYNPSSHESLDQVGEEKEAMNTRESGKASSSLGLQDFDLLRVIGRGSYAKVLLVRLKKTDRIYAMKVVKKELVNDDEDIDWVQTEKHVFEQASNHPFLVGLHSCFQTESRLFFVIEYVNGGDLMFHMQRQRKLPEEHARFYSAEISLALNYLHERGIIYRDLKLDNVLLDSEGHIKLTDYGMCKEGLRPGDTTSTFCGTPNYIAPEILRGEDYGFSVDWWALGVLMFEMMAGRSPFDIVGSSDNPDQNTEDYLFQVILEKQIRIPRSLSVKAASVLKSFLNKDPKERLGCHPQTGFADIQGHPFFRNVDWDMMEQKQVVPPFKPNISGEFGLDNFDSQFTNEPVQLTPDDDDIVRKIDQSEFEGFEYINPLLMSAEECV
Chain of Cyclin-dependent kinase 19 (Q9BWU1 whole entry): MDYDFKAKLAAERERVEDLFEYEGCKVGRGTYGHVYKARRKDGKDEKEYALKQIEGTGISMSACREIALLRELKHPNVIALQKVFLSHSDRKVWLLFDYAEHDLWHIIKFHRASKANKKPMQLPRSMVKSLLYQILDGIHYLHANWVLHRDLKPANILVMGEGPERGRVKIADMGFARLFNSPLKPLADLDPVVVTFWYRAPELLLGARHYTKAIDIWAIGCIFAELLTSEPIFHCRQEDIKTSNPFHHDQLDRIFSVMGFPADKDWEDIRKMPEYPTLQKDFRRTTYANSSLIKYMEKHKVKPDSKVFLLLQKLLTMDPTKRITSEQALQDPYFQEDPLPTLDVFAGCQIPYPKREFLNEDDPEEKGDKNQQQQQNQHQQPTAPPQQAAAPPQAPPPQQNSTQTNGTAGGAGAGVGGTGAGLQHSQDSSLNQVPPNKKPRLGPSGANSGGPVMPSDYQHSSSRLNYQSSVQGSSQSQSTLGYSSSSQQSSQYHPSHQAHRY
Chain of Cyclin-dependent kinase 5 (Q00535 whole entry): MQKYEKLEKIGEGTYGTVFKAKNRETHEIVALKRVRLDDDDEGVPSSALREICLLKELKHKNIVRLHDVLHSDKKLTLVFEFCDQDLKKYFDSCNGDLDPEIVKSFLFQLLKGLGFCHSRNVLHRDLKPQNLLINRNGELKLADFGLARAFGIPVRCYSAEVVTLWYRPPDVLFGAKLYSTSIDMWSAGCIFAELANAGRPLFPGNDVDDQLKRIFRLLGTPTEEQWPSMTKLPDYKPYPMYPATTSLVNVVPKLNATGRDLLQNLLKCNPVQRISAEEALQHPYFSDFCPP

Take `CS(=O)(=O)N(Cc1ccc2[nH]c(=O)c3cccn3c2c1)C1CC1`: the Ki in [1] is 251 nM (active); in [2], > 6310 nM (inactive); in [3] it was 39.8 nM (active); in assay [4] it was 10 nM (active); in assay [5], > 7940 nM (inactive); in assay [6], > 7940 nM (inactive). Also, the Ki in assay [7] was > 10000 nM (inactive); in assay [8], > 1580 nM (inactive); in assay [9], 10 nM (active); in assay [10], 251 nM (active); in assay [11], > 7940 nM (inactive); in [12], 79.4 nM (active). The Ki in assay [13] is > 2000 nM (inactive); in assay [14], > 100000 nM (inactive); in assay [15], > 5010 nM (inactive); in [16], 631 nM (active); in assay [17] it was 251 nM (active).
With `OCC[n+]1c2ccccc2nc2ccc(N3CCOCC3)cc21`, in [18], the AC50 was > 380000 nM (inactive). The IC50 in [19] is 28000 nM (active).
